# Source: patent publication US20080280937A1, “Ligand Conjugates of Vinca Alkaloids, Analogs, and Derivatives” (priority 2005, published 2008)
# Entries after “also recorded” stand apart in the source; their conditions may differ.
# What was measured:
# folate receptors (FRs) = molecular target: T1, folate receptors (FRs) (Homo sapiens, UniProt P15328); assay: Relative Affinity Assay (displacement of 3H-folic acid on FR-positive KB cells); format: binding
# T1 construct: FR-positive KB cells were heavily seeded into 24-well cell culture plates; endogenous in cells; host or cells: KB cells
# T1 sequence (P15328 25-234): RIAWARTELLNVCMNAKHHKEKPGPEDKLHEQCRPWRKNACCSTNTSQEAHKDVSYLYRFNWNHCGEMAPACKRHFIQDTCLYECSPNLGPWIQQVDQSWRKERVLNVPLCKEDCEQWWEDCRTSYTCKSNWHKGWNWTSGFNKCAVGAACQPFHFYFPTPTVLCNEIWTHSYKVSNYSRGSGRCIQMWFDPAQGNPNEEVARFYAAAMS
# Procedure: Relative Affinity Assay. The affinity of the compounds described herein for folate receptors (FRs) relative to folate was determined according to a previously described method (Westerhof, G. R., J. H. Schornagel, et al. (1995) Mol. Pharm. 48: 459-471) with slight modification. Briefly, FR-positive KB cells were heavily seeded into 24-well cell culture plates and allowed to adhere to the plastic for 18 h. Spent incubation media was replaced in designated wells with folate-free RPMI (FFRPMI) supplemented with 100 nM ^3H-folic acid in the absence and presence of increasing concentrations of test article or folic acid. Cells were incubated for 60 min at 37° C. and then rinsed 3 times with PBS, pH 7.4, followed by the addition of 500 μL of 1% SDS in PBS, pH 7.4. Cell lysates were then collected and added to individual vials containing 5 mL of scintillation cocktail, and then counted for radioactivity. Negative control tubes contained only the ^3H-folic acid in FFRPMI (no competitor). Positive control tubes contained a final concentration of 1 mM folic acid, and CPMs measured in these samples (representing non-specific binding of label) were subtracted from all samples.
# [1] = system: Folate receptor-negative 4T-1 tumor cells; assay: 4T-1 Tumor Volume Assay; format: in vivo, Balb/c mice; conditions: 3 μmol/kg TIW for 3 weeks
# Description: 4T-1 Tumor Volume Assay. Six to seven week-old mice (female Balb/c strain) were obtained from Harlan, Inc., Indianapolis, Ind. The mice were maintained on Harlan's folate-free chow for a total of three weeks prior to the onset of and during this experiment. Folate receptor-negative 4T-1 tumor cells (1×10^6 cells per animal) were inoculated in the subcutis of the right axilla. Approximately 5 days post tumor inoculation when the 4T-1 tumor average volume was ˜100 mm^3, mice (5/group) were injected i.v. three times a week (TIW), for 3 weeks with 3 μmol/kg of drug delivery conjugate or with an equivalent dose volume of PBS (control). Tumor growth was measured using calipers at 2-day or 3-day intervals in each treatment group. Tumor volumes were calculated using the equation V=a×b^2/2, where “a” is the length of the tumor and “b” is the width expressed in millimeters.
# [2] = system: folate receptor-positive KB cells; format: cell-based, human
# Procedure: Inhibition of Cellular DNA Synthesis. The compounds described herein were evaluated using an in vitro cytotoxicity assay that predicts the ability of the drug to inhibit the growth of folate receptor-positive KB cells. The compounds were comprised of folate linked to a respective chemotherapeutic drug, as prepared according to the protocols described herein. The KB cells were exposed for predetermined periods of time at 37° C. to the indicated concentrations of folate-drug conjugate in the absence or presence of at least a 100-fold excess of folic acid. The cells were then rinsed with fresh culture medium and incubated in fresh culture medium for 72 hours at 37° C. Cell viability was assessed using a ^3H-thymidine incorporation assay.
# [3] = Animal Weight Determination
# Procedure: Animal Weight Determination. The percentage weight change of the mice was determined in mice (5 mice/group) on the indicated days post-tumor inoculation (PTI) as shown in the graph for the samples described in the related tumor volume assay.
# M109 tumors = assay: Inhibition of Tumor Growth in Mice, subcutaneous M109 tumors; format: in vivo; conditions: Balb/c mice
# Procedure: Inhibition of Tumor Growth in Mice. The anti-tumor activity of the compounds described herein, when administered intravenously (i.v.) to tumor-bearing animals, was evaluated in Balb/c mice bearing subcutaneous M109 tumors. Approximately 11 days post tumor inoculation in the subcutis of the right axilla with 1×10^6 M109 cells (tumor volume range at t0=between 60 and 80 mm^3), mice (5/group) were injected i.v. three times a week (TIW), for a defined length of time (e.g., 2-3 weeks) with (a) a defined dose level on a per kilogram body weight basis of a drug delivery conjugate described herein, or (b) an equivalent dose volume of PBS (control). Tumor growth was measured using calipers at 2-day or 3-day intervals in each treatment group. Tumor volumes were calculated using the equation V=a×b^2/2, where “a” is the length of the tumor and “b” is the width expressed in millimeters.
smiles,measurement,setting,value
CC[C@]1(O)C[C@H]2CN(CCc3c([nH]c4ccccc34)[C@@](C(=O)OC)(c3cc4c(cc3OC)N(C)[C@H]3[C@@](O)(C(=O)NN=CCOCCOCCN5C(=O)CC(SC[C@H](NC(=O)[C@H](CC(=O)O)NC(=O)[C@H](CC(=O)O)NC(=O)[C@H](CCCNC(=N)N)NC(=O)[C@H](CC(=O)O)NC(=O)CC[C@H](NC(=O)c6ccc(NCc7cnc8nc(N)[nH]c(=O)c8n7)cc6)C(=O)O)C(=O)O)C5=O)[C@H](O)[C@]5(CC)C=CCN6CC[C@]43[C@@H]65)C2)C1 (some centres unmarked) [Example 6],relative binding affinity versus folic acid at folic acid receptors,"folate receptors (FRs); figure legends, folic acid = 1.0, 1 hour at 37° C",0.35
same,Relative Folate Receptor Affinity,folate receptors (FRs); summary table,0.31
same,growth of FR-negative 4T-1 tumors,[1],not folate receptor (FR)-negative tumors; also recorded: absence of activity
same,IC50,"[2]; KB cells, without excess folic acid, read-out: IC50, 3H-thymidine incorporation in KB cells",14 nM
same,Folate Receptor Competition,[2]; summary table,Yes
same,competition by excess folic acid of effect on 3H-thymidine incorporation,[2]; with versus without at least 100-fold excess of folic acid,folate competes
same,weight of nu/nu mice,[3]; 5 μmol/kg for 3 weeks (FIG. 16B),absence of an effect
same,weight of nu/nu mice,[3]; 10 μmol/kg TIW for 3 weeks (FIG. 5B),does not affect the weight of the mice; also recorded: absence of an effect
same,weight of mice,[3]; 10 μmol/kg TIW for 3 weeks (FIG. 7B),absence of an effect
same,weight of Balb/c mice,[3]; 10 μmol/kg for 3 weeks (FIG. 14B),absence of an effect
same,weight of nu/nu mice,"[3]; 1, 5, and 10 μmol/kg TIW for 3 weeks (FIG. 6B)",little effect on the weight of the mice; also recorded: absence of an effect
same,growth of M109 tumors,M109 tumors; 1.5 μmol/kg TIW,inhibits the growth of solid tumors
same,growth of M109 tumors,M109 tumors; 3 μmol/kg TIW for 3 weeks,inhibits the growth of solid M109 tumors
same,growth of M109 tumors,M109 tumors; 10 μmol/kg TIW for 3 weeks,inhibits the growth of solid tumors
